The source of these data is patent US20250034105A1, “IS[…] N-METHYL-1,3-BENZODIOXOLYLBUTANAMINE (MBDB) AND STEREOISOMERS THEREOF” (Terran Biosciences Inc., priority 2021, published 2025).

Structures are written as SMILES.

This data set can be described thus: Metabolic stability in human liver microsomes. Format: in vitro ADME. Conditions: for differences in half-life and intrinsic clearance compared to rac-MBDB HCl salt (reference compound) / differences in half-life and intrinsic clearance compared to S-MBDB HCl salt (reference compound) / differences in half-life and intrinsic clearance compared to R-MBDB HCl salt (reference compound): based on Table Ex7; for half-life at 0.25 μM / microsomal CLint at 0.25 μM: pH 7.4, NADPH; for half-life at 0.25 μM / microsomal CLint at 0.25 μM / CLint / t1/2: 37° C.; for CLint / t1/2: NADPH. The procedure: Microsomal Assay: Human liver microsomes (20 mg/mL) were obtained. β-nicotinamide adenine dinucleotide phosphate, reduced form (NADPH), magnesium chloride (MgCl2), and dimethyl sulfoxide (DMSO) were purchased from Sigma-Aldrich. Determination of Metabolic Stability: 7.5 mM stock solutions of test compounds of the above structural formula (e.g., of an embodiment or aspect of embodiment thereof described herein), or pharmaceutically acceptable salt thereof, are prepared in DMSO. […] The diluted microsomes were added to wells of a 96-well deep-well polypropylene plate in triplicate. […] Reactions were initiated by addition of pre-warmed NADPH solution. The final reaction volume is 0.5 mL and contains 4.0 mg/mL human liver microsomes, 0.25 μM test compound, and 2 mM NADPH in 0.1 M potassium phosphate buffer, pH 7.4, and 3 mM MgCl2. The reaction mixtures were incubated at 37° C., and 50 pL aliquots were removed at 0, 5, 10, 20, and 30 minutes and added to shallow-well 96-well plates which contain 50 pL of ice-cold ACN (acetonitrile) with internal standard to stop the reactions. The plates were stored at 4° C. for 20 minutes after which 100 pL of water was added to the wells of the plate before centrifugation to pellet precipitated proteins. Supernatants were transferred to another 96-well plate and analyzed for amounts of parent remaining by LC-MS/MS using an Applied Bio-systems API 4000 mass spectrometer. The same procedure was followed for the non-enriched counterpart of the compound and the positive control, 7-ethoxycoumarin (1 μM). Testing was done in triplicate.
Data analysis: The in vitro T1/2s for test compounds were calculated from the slopes of the linear regression of % parent remaining (In) vs incubation time relationship.
k=−[slope of linear regression of % parent remaining (In) vs incubation time] The apparent intrinsic clearance was calculated using the following equation: […]

As to `Cl.[2H]C([2H])([2H])NC(CC)Cc1ccc2c(c1)OCO2` (racemic) [Compound 2, 1-(1,3-Benzodioxol-5-yl)-N-(trideuteriomethyl)butan-2-amine hydrochloride], the “differences in half-life and intrinsic clearance compared to rac-MBDB HCl salt (reference compound)” value was “demonstrates differences”; the half-life at 0.25 μM amounted to 112 min; the intrinsic clearance (microsomal CLint) at 0.25 μM is 12.4 µL/min/mg.

Take `COc1ccc2c(c1)[C@]13CCCC[C@@H]1[C@H](C2)N(C)CC3` [dextromethorphan]: the CLint worked out at 53.4 μL/min/mg protein.

Regarding `Cl.[2H]C1([2H])Oc2ccc(C[C@H](CC)NC)cc2O1` [Compound 9, (2S)-1-(2,2-Dideuterio-1,3-benzodioxol-5-yl)-N-methyl-butan-2-amine hydrochloride], the “differences in half-life and intrinsic clearance compared to S-MBDB HCl salt (reference compound)” value is listed as “significant differences”; the half-life at 0.25 μM is 52 min; the microsomal CLint at 0.25 μM turned out to be 26.7 µL/min/mg.

As for `Cl.[2H]C([2H])([2H])N[C@H](CC)Cc1ccc2c(c1)OCO2` [Compound 1, (2R)-1-(1,3-Benzodioxol-5-yl)-N-(trideuteriomethyl)butan-2-amine hydrochloride], the “differences in half-life and intrinsic clearance compared to R-MBDB HCl salt (reference compound)” value is on record as “significant differences”; the half-life at 0.25 μM was found to be 96.8 min; the microsomal CLint at 0.25 μM was determined as 14.3 µL/min/mg.

`CC[C@H](Cc1ccc2c(c1)OCO2)NC.Cl` [R-MBDB HCl salt] came in with a CLint of 11.7 μL/min/mg protein and a t1/2 of 119 min.

For the compound `Cl.[2H]C([2H])([2H])N[C@H](CC)Cc1ccc2c(c1)OC([2H])([2H])O2` [Compound 5, (2R)-1-(2,2-Dideuterio-1,3-benzodioxol-5-yl)-N-(trideuteriomethyl)butan-2-amine hydrochloride], the “differences in half-life and intrinsic clearance compared to R-MBDB HCl salt (reference compound)” value is “significant differences”; the half-life at 0.25 μM came out at 24.3 min; the microsomal CLint at 0.25 μM came to 57.1 µL/min/mg.

For the compound `Cl.[2H]C([2H])([2H])N[C@@H](CC)Cc1ccc2c(c1)OC([2H])([2H])O2` [Compound 6, (2S)-1-(2,2-Dideuterio-1,3-benzodioxol-5-yl)-N-(trideuteriomethyl)butan-2-amine hydrochloride], the “differences in half-life and intrinsic clearance compared to S-MBDB HCl salt (reference compound)” value is listed as “significant differences”; the half-life at 0.25 μM was found to be 54.6 min; the intrinsic metabolic clearance (microsomal CLint) at 0.25 μM came to 25.4 µL/min/mg.

`Cl.[2H]C([2H])([2H])N[C@@H](CC)Cc1ccc2c(c1)OCO2` [Compound 3, (2S)-1-(1,3-Benzodioxol-5-yl)-N-(trideuteriomethyl)butan-2-amine hydrochloride]: the “differences in half-life and intrinsic clearance compared to S-MBDB HCl salt (reference compound)” value is reported as “demonstrates differences”; the half-life at 0.25 μM was 173 min; the microsomal CLint at 0.25 μM stood at 8.04 µL/min/mg.

`CC[C@@H](Cc1ccc2c(c1)OCO2)NC.Cl` [S-MBDB HCl salt] displayed a CLint of 8.06 μL/min/mg protein and a t1/2 of 172 min.

In the case of `Cl.[2H]C1([2H])Oc2ccc(CC(CC)NC)cc2O1` (racemic) [Compound 8, 1-(2,2-Dideuterio-1,3-benzodioxol-5-yl)-N-methyl-butan-2-amine hydrochloride], the “differences in half-life and intrinsic clearance compared to rac-MBDB HCl salt (reference compound)” value is “significant differences”; the half-life at 0.25 μM is 80.6 min; the microsomal CLint at 0.25 μM turned out to be 17.2 µL/min/mg.

The compound `CCC(Cc1ccc2c(c1)OCO2)NC.Cl` (racemic) [rac-MBDB HCl salt] yielded a CLint of 11.9 μL/min/mg protein and a t1/2 of 116 min.

As for `Cl.[2H]C1([2H])Oc2ccc(C[C@@H](CC)NC)cc2O1` [Compound 7, (2R)-1-(2,2-Dideuterio-1,3-benzodioxol-5-yl)-N-methyl-butan-2-amine hydrochloride], the “differences in half-life and intrinsic clearance compared to R-MBDB HCl salt (reference compound)” value is recorded as “significant differences”; the half-life at 0.25 μM was 37.7 min; the microsomal CLint at 0.25 μM is 36.7 µL/min/mg.

Consider `Cl.[2H]C([2H])([2H])NC(CC)Cc1ccc2c(c1)OC([2H])([2H])O2` (racemic) [Compound 4, 1-(2,2-Dideuterio-1,3-benzodioxol-5-yl)-N-(trideuteriomethyl)butan-2-amine hydrochloride], for which the “differences in half-life and intrinsic clearance compared to rac-MBDB HCl salt (reference compound)” value is “significant differences”; the half-life at 0.25 μM came out at 42 min; the microsomal CLint at 0.25 μM came out at 33 µL/min/mg.
